Data as given in patent US20080115593A1, “Method for Detecting Conformational Change of Calmodulin, a Method for Screening a Substance Having an Activity that Affects to Conformational Change of Calmodulin” (FUENCE CO., LTD., priority 2004, published 2008).

Molecular target: T1, Calmodulin derived from bovine (Bos taurus, UniProt P62157)
T1 construct: purchased Sigma
Experiment: Tension and elasticity change of calmodulin film detected by mechanochemical sensor (Example 1)
Type: binding
Conditions: FIG. 1; for isotropic tension of the calmodulin film: 10 mM Hepes buffer pH7.4 containing 0.1 M NaCl, flow 0.1 to 0.2 mL/min
Procedure: Calmodulin derived from bovine (Sigma) was dissolved into purified water at a concentration of 2 mg/ml. This solution was sprayed under dry air using an electrospry device described in WO 2002-511792 or an immobilzing device described in Japanese Patent Publication No. 2003-136005. The solution was permeated through a mask with holes of 400 μm in length and 800 μm in width, and then a film was prepared on 1.2% polyvinylpyrrolidone using an electrospray method (the EDS method). The resulting film was placed on an apparatus having a mechanochemical sensor which was described in WO 2002-503332 or U.S. Pat. Publication No. 6,033,913, and it was immersed into 10 mM Hepes buffer solution pH7.4 (hereinafter referred to as “the buffer solution”) containing 0.1 M NaCl. The buffer solution was passed through the film existing on the detecting apparatus at the flow rate of 0.1 to 0.2 mL/min, in order to stabilize the tension of the sample film. Thereafter CaCl2 solution dissolved in said buffer solution was passed through at the same flow rate to detect changes in tension and elasticity (FIG. 1).
A place where the horizontal line (indicating the initial state) uprises means a point where tension is given to the sample film, and compliance is detected where the line oscillates. […] Meanwhile, for example, following review can be refereed to the conformational change of calmodulin, (Vetter S. W. and Leclerc, E. (2003). Novel aspects of calmodulin target recognition and activation. Eur. J. Biochem. 270, 404-414).

SMILES | isotropic tension of the calmodulin film | reversibility of the effect on the film when restored by the buffer solution (buffer solution passed after CaCl2)
[Ca+2].[Cl-].[Cl-] [CaCl2] | remarkably increases | reversible
O=C(O)CN(CCN(CC(=O)O)CC(=O)O)CC(=O)O [EDTA] | further decreases | –
